Columns and labels:
[1] = Kinetics of thermal decarboxylation in aqueous buffer solution without catalyst; type: physicochemical; conditions: for k (rate coefficient of decarboxylation) / n (order of reaction of decarboxylation): buffer solution, no catalyst
Description: (§1) In this experiment, the kinetics of the thermal decarboxylation of step b) of the method according to the invention was studied. […] In this case it was possible to decarboxylate anthranilate ion to aniline (ANL). AA, or o-aminobenzoate, respectively was either provided biologically by a recombinant microbial host as described in Example 1, or it was provided chemically, e.g. it was commercially obtained, e.g. from Sigma Aldrich, catalog no. A89855.
(§2) A buffer solution containing (NH4)2SO4 (20 g/L), Na2HPO4 (1 g/L) and KH2PO4 (1 g/L) in distilled water was prepared. Then AA 10 wt % was suspended in this solution. NH4OH solution (28-30% NH3) was added dropwise into this suspension until a clear yellow solution was formed. The pH of this ammonium anthranilate (NH4AA) solution was around 7. The ammonium anthranilate (3 wt %) solution was also prepared using this method.
80 mL of each of the above solutions was transferred into an autoclave 160 mL and heated to 160° C. or 180° C. and samples were taken at different time intervals to analyse the rate of aniline (ANL) formation.
Decarboxylation of AA 0.5 wt % and NH4AA 3 wt % in aqueous buffer solution was performed at 160° C. without using any catalyst. […] The kinetic model was established using the general reaction rate formula as below and considering the experimental data to calculate the optimized k and n parameters which are the rate coefficient and the order of reaction, respectively.
The kinetics of NH4AA 10 wt % decarboxylation at 160° C. and 180° C. was also studied using experimental data and a simulating model.

[2] = Solubility of ammonium anthranilate in buffer solution; type: physicochemical; conditions: AA buffer solution with NH4OH added
Description: as §1, §2

[3] = reaction temperature 160 °C, listed as NH4AA 10% in buffer solution

Compound | rate coefficient (k) relative to that of NH4AA 3 wt % ([1]; 160 °C, decarboxylation in water) | k (rate coefficient of decarboxylation) ([1]; reaction temperature 160 °C) | n (order of reaction of decarboxylation) ([1]; reaction temperature 160 °C) | solubility [2] | rate coefficient at 180 °C relative to that at 160 °C ([1]; NH4AA 10 wt %) | k (rate coefficient of decarboxylation) [1, 3] | n (order of reaction of decarboxylation) [1, 3] | k (rate coefficient of decarboxylation) ([1]; reaction temperature 180 °C) | n (order of reaction of decarboxylation) ([1]; reaction temperature 180 °C)
Nc1ccccc1C(=O)O [AA 0.5% in buffer solution, anthranilic acid] | 6.8 times | 0.0519 h⁻¹ | 0.9207 | – | – | – | – | – | –
N.Nc1ccccc1C(=O)O [ammonium anthranilate] | – | – | – | up to 10% | – | – | – | – | –
N.Nc1ccccc1C(=O)O [NH4AA 3% in buffer solution, ammonium anthranilate] | – | 0.00755 h⁻¹ | 0.8706 | – | 36 times | 0.000713 h⁻¹ | 1.2758 | 0.026 h⁻¹ | 0.9793
